Patent publication US8835440B2, “Cyclic pyrimidin-4-carboxamides as CCR2 receptor antagonists for treatment of inflammation, asthma and COPD” (Boehringer Ingelheim International GmbH, priority 2008, dated 2014)

Target: T1, CCR2 (Homo sapiens, UniProt P41597)
T1 construct: Membranes were prepared from THP-1 cells; endogenous in cells; host or cells: THP-1 cells (membrane preparation)
T1 sequence (P41597 1-360 isoform P41597-2): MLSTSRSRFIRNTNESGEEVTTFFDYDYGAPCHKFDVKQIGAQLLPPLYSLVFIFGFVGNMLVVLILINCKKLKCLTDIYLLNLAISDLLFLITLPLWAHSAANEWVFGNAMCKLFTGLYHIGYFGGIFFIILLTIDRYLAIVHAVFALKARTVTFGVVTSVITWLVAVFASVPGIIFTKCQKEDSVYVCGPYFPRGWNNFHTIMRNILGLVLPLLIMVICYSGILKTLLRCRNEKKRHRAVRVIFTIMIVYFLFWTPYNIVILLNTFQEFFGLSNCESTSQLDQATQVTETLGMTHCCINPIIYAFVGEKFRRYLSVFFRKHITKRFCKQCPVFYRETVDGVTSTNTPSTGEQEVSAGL
Experiment: CCR2 receptor membrane binding assay ([125I]MCP-1, THP-1 cell membranes, SPA beads)
Conditions: for remaining activity at 10 µM: @ 10 μM test compound, THP-1 membranes, read-out: CCR2 % ctrl @ 10 μM; for Ki: dissociation constant hKi, [125I]MCP-1 binding to THP-1 membranes
Method in brief: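 hKi was derived by iterative law-of-mass-action fitting of scintillation counts read at 8 h. Compound (1% DMSO final) competed with ca. 25000 cpm [125I]MCP-1 for THP-1 membranes bound to WGA-PVT beads. Buffer: 25 mM HEPES pH 7.2, 5 mM MgCl2, 0.5 mM CaCl2, 0.2% BSA.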

Row | Compound | remaining activity at 10 µM | Ki
1 | Cc1c(NCc2ccc(Cl)c(Cl)c2)ncnc1C(=O)N1CCC(N2CCCC(F)C2)CC1 (centres unmarked) [Example 233] | 8% | 0.194 µM
2 | Cc1c(NCc2cccc(-c3ccccc3)c2)ncnc1C(=O)N1CCC(N2CCOC(C)C2)CC1 (centres unmarked) [Example 234] | 19% | 0.401 µM
3 | Cc1c(NCc2ccc(Cl)c(Cl)c2)ncnc1C(=O)N1CCC(N2CCCCCC2)CC1 [Example 235] | 26% | 0.46 µM
4 | Cc1c(NCc2cccc(-c3ccccc3)c2)ncnc1C(=O)N1CCC(N2CCC(N(C)C)CC2)CC1 [Example 236] | 14% | 0.175 µM
5 | Cc1c(NCCc2ccc(Cl)c(Cl)c2)ncnc1C(=O)N1CCC(N2CCOC(C)C2)CC1 (centres unmarked) [Example 237] | 9% | 0.133 µM
6 | Cc1c(NCc2ccc(Cl)c(Cl)c2)ncnc1C(=O)N1CCC(N2CCC(O)C2)CC1 (centres unmarked) [Example 238] | 14% | 0.239 µM
7 | Cc1c(NCc2cccc(-c3ccccc3)c2)ncnc1C(=O)N1CCC(N2CCC(O)C2)CC1 (centres unmarked) [Example 239] | 33% | 2.32 µM
8 | Cc1c(NCCc2ccc(Cl)c(Cl)c2)ncnc1C(=O)N1CCC(N2CCOC(c3ccccc3)C2)CC1 (centres unmarked) [Example 240] | 7% | 0.104 µM
9 | Cc1c(NCCc2ccc(Cl)c(Cl)c2)ncnc1C(=O)N1CCC(N2CCC(O)C2)CC1 (centres unmarked) [Example 241] | 21% | 0.522 µM
10 | Cc1c(NCc2ccc(Cl)c(Cl)c2)ncnc1C(=O)N1CCC(N2CCCOCC2)CC1 [Example 242] | 21% | 0.516 µM
11 | Cc1c(NCc2cccc(-c3ccccc3)c2)ncnc1C(=O)N1CCC(N2CCCOCC2)CC1 [Example 243] | 40% | 1.61 µM
12 | Cc1c(NCc2ccc(Cl)c(Cl)c2)ncnc1C(=O)N1CCC(N2CCC(F)(F)CC2)CC1 [Example 244] | 24% | 0.366 µM
13 | Cc1c(NCc2ccc(Cl)c(Cl)c2)ncnc1C(=O)N1CCC(N2CCCC(O)CC2)CC1 (centres unmarked) [Example 245] | 15% | 0.555 µM
14 | Cc1c(NCCc2ccc(Cl)c(Cl)c2)ncnc1C(=O)N1CCC(N2CC[C@@H](O)[C@@H](O)C2)CC1 [Example 246] | 2% | 0.306 µM
15 | Cc1c(NCCc2ccc(Cl)c(Cl)c2)ncnc1C(=O)N1CCC(N2CCCC(O)CC2)CC1 (centres unmarked) [Example 247] | 6% | 0.149 µM
16 | CNC(=O)C1CCN(C2CCN(C(=O)c3nc(C)nc(NCc4ccc(C(C)(C)C)cc4)c3C)CC2)CC1 [Example 248] | 17% | 
17 | CN(C1CCN(C2CCN(C(=O)c3ncnc(NCc4ccc(C(C)(C)C)cc4)c3C#N)CC2)CC1)S(C)(=O)=O [Example 249] | 36% | 3.25 µM
18 | Cc1c(NCc2ccc(C(C)(C)C)cc2)ncnc1C(=O)N1CCC(N2CCCCC2)C1 (centres unmarked) [Example 250] | 32% | 1.26 µM
19 | Cc1c(NCc2ccc(C(C)(C)C)cc2)ncnc1C(=O)N1CCC(N2CCCC2)C1 (centres unmarked) [Example 251] | 75% | 0.439 µM
20 | Cc1c(NCCc2ccc(Cl)c(Cl)c2)ncnc1C(=O)N1CCC(C(N)=O)(N2CCCCC2)CC1 [Example 252] | 6% | 0.038 µM
21 | Cc1c(NCCc2ccc(Cl)c(Cl)c2)ncnc1C(=O)N1CCC(N2CCCC2)CC1 [Example 253] | 17% | 0.35 µM
22 | CNS(=O)(=O)C1CCN(C2CCN(C(=O)c3ncnc(NCc4ccc(Cl)c(Cl)c4)c3C)CC2)CC1 [Example 254] | 11% | 0.101 µM
23 | Cc1c(NCc2ccc(Cl)c(Cl)c2)ncnc1C(=O)N1CCC(N2CCC(N(C)S(C)(=O)=O)CC2)CC1 [Example 255] | 5% | 0.033 µM
24 | Cc1c(NCc2ccc(Cl)c(Cl)c2)ncnc1C(=O)N1CCC(N2CC[C@H](C(N)=O)C2)CC1 [Example 256] | 25% | 0.438 µM
